Results: patent US8541670B2, “Compositions and methods for inhibiting tumor cell growth” (priority 2007, dated 2013)
Where no end group is shown, it is not given here. red fluorescent dye = not defined here

Experiments:
JAK3 = biological target: T1, JAK3 (Homo sapiens, UniProt P52333); experiment: In vitro kinase assay JAK3; format: biochemical; conditions: ten times higher concentration than 0.1 μM
T1 construct: endogenous in cells
T1 sequence (P52333 1-1124): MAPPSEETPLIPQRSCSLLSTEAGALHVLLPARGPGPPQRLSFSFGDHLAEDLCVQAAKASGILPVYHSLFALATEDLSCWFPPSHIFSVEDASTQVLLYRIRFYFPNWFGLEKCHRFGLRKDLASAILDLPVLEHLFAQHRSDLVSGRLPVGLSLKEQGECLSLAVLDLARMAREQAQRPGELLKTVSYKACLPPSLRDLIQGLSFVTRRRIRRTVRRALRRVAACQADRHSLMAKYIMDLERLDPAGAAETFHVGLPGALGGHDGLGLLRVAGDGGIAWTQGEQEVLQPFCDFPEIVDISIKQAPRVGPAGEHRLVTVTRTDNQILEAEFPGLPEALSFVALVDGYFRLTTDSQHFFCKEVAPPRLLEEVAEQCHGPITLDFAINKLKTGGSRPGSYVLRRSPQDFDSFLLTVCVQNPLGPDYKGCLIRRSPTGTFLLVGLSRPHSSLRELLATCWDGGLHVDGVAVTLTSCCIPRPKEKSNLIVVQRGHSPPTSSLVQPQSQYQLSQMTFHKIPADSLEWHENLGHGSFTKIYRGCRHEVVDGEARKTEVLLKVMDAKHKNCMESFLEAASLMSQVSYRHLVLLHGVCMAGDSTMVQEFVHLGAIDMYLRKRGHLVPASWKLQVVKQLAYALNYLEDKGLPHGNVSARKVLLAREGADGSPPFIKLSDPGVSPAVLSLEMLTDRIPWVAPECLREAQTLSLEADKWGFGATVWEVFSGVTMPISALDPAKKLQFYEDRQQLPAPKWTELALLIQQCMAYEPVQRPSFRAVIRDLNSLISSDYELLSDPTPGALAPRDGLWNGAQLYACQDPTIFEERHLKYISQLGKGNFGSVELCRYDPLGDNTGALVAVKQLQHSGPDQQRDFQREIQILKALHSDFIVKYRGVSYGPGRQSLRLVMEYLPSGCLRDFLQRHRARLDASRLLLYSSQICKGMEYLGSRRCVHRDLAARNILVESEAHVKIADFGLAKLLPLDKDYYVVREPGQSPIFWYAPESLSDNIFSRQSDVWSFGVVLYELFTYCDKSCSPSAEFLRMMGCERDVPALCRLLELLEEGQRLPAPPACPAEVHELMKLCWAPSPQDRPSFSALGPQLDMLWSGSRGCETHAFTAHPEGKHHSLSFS
Protocol: (§1) As a specific substrate, the phosphorylation level of GSK-3[…] at Ser-9 was also evaluated. […] The decrease was specific to the AKT phosphorylation site on GSK-3[…] at Ser-9, since a change in the phosphorylation level of GSK-3[…] at Tyr-216 or GSK-3[…] at Tyr-279 was not observed. Moreover, the in vivo reduction of the phosphorylation of AKT substrates was more obvious at the injection site, since a significant change in the phosphorylation of AKT substrates in the frontal cortex or cerebellum between the two hemispheres was not observed. […] To test the specificity/selectivity of ZaTa as the inhibitor of AKT1 versus the other major kinases, a series of in vitro kinase assays was performed at IC50 for AKT1 and at ten times higher concentrations. A panel of the following 32 kinases was first tested in vitro using the active form of each kinase and a specific substrate: AKT2, AKT3, PKA, PKC[…], PKC, PI3K[…], PI3K[…], PI3K, SGK, PAK2, PAK3, SAPK2/p38, Abl, CaMKII, CDK1/cyclinB, CDK5/p35, CK1, CK2, CSK, GSK3[…], GSK3[…], JNK1[…]1, MAPK1, p70S6K, PDGFR[…], PDGFR[…], PDK1, PKG1[…], TrkB, JAK2, JAK3, and Syk. […] However, at ten times higher concentration, ZaTa inhibited AKT2 (63%), PI3K[…] (72%), p70S6K (64%), SGK (73%), PAK3 (83%), JAK3 (79%), TrkB (84%), and Abl (42%). […]

TrkB [1] = biological target: T2, TrkB (Homo sapiens, UniProt Q16620); experiment: In vitro kinase assay TrkB; format: biochemical; conditions: ten times higher concentration than 0.1 μM
Protocol: as §1

p70S6K = biological target: T3, p70S6K (Homo sapiens, UniProt P23443); experiment: Cell-based kinase assay, phosphorylation of intracellular substrate (Ser-235/236 S6)
T3 construct: endogenous in cells
Protocol: (§2) As a specific substrate, the phosphorylation level of GSK-3[…] at Ser-9 was also evaluated. […] The decrease was specific to the AKT phosphorylation site on GSK-3[…] at Ser-9, since a change in the phosphorylation level of GSK-3[…] at Tyr-216 or GSK-3[…] at Tyr-279 was not observed. Moreover, the in vivo reduction of the phosphorylation of AKT substrates was more obvious at the injection site, since a significant change in the phosphorylation of AKT substrates in the frontal cortex or cerebellum between the two hemispheres was not observed. […] To test the specificity/selectivity of ZaTa as the inhibitor of AKT1 versus the other major kinases, a series of in vitro kinase assays was performed at IC50 for AKT1 and at ten times higher concentrations. […]
(§3) Phosphorylation sites for kinases analyzed herein included Ser-235/236 S6 (a substrate for p70S6K), Tyr-207 CRKL (a substrate for Abl; Zipfel, et al. (2004) supra), Ser-241 PDK1 (a substrate for PI3K), Tyr-1022/1023 JAK1 (a substrate for JAK3; Wang, et al. (2003) supra), Ser-421 Huntingtin (a substrate for SGK; Rangone, et al. (2004) supra), Tyr-783 PLC (a substrate for TrkB; Middlemas, et al. (1994) supra), and Ser-338 cRaf (a substrate for PAK3; King, et al. (1998) supra).

TrkB [2] = biological target: T2, TrkB; experiment: Cell-based kinase assay, phosphorylation of intracellular substrate (Tyr-783 PLC)
Protocol: as §2, §3

T3 sequence (P23443 whole entry): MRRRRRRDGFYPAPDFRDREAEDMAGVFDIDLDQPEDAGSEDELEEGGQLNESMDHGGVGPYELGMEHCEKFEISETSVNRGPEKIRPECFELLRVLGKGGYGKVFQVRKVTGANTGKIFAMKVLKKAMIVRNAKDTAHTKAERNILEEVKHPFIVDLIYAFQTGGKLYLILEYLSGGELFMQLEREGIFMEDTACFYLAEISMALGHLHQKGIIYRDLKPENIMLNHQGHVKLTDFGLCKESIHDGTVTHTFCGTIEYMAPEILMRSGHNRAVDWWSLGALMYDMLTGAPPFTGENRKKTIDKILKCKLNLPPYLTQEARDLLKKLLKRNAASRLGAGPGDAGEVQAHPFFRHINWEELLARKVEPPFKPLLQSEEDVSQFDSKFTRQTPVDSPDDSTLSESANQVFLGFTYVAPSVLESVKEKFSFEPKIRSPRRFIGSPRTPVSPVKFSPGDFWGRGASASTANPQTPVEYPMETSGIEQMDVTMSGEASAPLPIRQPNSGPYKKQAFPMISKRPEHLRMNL

Row | Substance | inhibition of JAK3 (JAK3) [%] | inhibition of TrkB (TrkB [1]) [%] | inhibition of p70S6K in cells (p70S6K) | inhibition of TrkB in cells (TrkB [2])
1 | AKRVKGRTWTLCGTPEY [ZaTa] | 79 | 84 | could inhibit p70S6K | –
2 | labeled ZaTa: ZaTa peptide labeled with a red fluorescent dye at its N-terminus ({red fluorescent dye}-AKRVKGRTWTLCGTPEY; reading uncertain) | – | – | – | did not cause inhibition
